Data from paper PMC12108418, “Broad-Spectrum Gramicidin S Derivatives with Potent Activity Against Multidrug-Resistant Gram-Negative ESKAPE Pathogens” (Antibiotics, 2025).
Values after ≈ are worked out from the molar mass of the structure shown. Read-outs that look alike come from different tables or passages of the source. Square brackets hold non-standard residues; d marks the D form. Peptide text beside a SMILES is read from it. Tle = CC(C)(C)[C@H](N)C(=O)O; Orn = NCCC[C@H](N)C(=O)O; Abu = CC[C@H](N)C(=O)O

Tests used:
[1] = system: Acinetobacter baumannii (ATCC 19606); type: cell-based
Experimental: (§1) The antibacterial efficacy of peptides was assessed using the broth microdilution method in accordance with Clinical and Laboratory Standards Institute (CLSI) guidelines (M07-A10, 2015 [33]). The minimum inhibitory concentrations (MICs) were determined against Escherichia coli (ATCC 25922), Klebsiella pneumoniae (ATCC 33495), Pseudomonas aeruginosa (ATCC 27853), Acinetobacter baumannii (ATCC 19606), and Staphylococcus aureus (ATCC 29213 and ATCC USA300). Bacterial suspensions were standardised to 5 × 10^4 colony-forming units (CFUs)/well in cation-adjusted Mueller–Hinton broth (CAMHB). Peptides were dissolved in 25% DMSO and serially diluted two-fold across 96-well plates, reaching final concentrations ranging from 256 to 0.125 µg/mL. The wells were inoculated, ensuring a final volume of 100 µL per well, with a DMSO concentration of 1% (v/v) to minimise solvent interference. […] Vancomycin was used as the positive control for S. aureus. Polymyxin B served as the positive control for Gram-negative bacteria. CAMHB with 1% (v/v) DMSO (without peptides) was used as the negative control. All experiments were performed in triplicate (n = 3). Bacterial isolates were stored in tryptone soy broth with 30% glycerol at −80 °C for long-term preservation.

[2] = system: Escherichia coli (ATCC 25922); type: cell-based
Experimental: as §1

[3] = system: Klebsiella pneumoniae (ATCC 33495); type: cell-based
Experimental: as §1

[4] = system: Pseudomonas aeruginosa (ATCC 27853); type: cell-based
Experimental: as §1

[5] = system: human red blood cells; assay: Haemolysis assay; type: cell-based; conditions: 1% human RBC suspension in HEPES-buffered saline pH 7.4, pooled from three donors, 0.125 to 256 μg/mL, 1 h, 37 °C, absorbance 540 and 410 nm, triplicate (n = 3)
Experimental: To evaluate haemolytic activity, fresh human blood was collected from three unrelated healthy volunteers to ensure donor variability. Red blood cells (RBCs) were separated by centrifugation at 3000 rpm for 5 min at 4 °C, followed by washing in HEPES-buffered saline (HBS; 150 mM NaCl, 5 mM HEPES-NaOH, pH 7.4). The samples were pooled, mixed, and all experiments were performed in triplicate to enhance reproducibility. Blood samples were used within 48 h of collection to preserve erythrocyte integrity. A 1% RBC suspension in HBS (200 μL) was distributed into 96-well plates, and peptide solutions (100 μL) were added to reach final concentrations ranging from 0.125 to 256 μg/mL. After a 1 h incubation at 37 °C, the plates were centrifuged (3000 rpm, 5 min, 4 °C), and 80 μL of each supernatant was transferred to a fresh microplate. Absorbance readings were taken at 540 nm and 410 nm to assess protein content and haemoglobin release, respectively. HBS served as a negative control and 1% Triton X-100 as a positive control (n = 3).

[6] = Analytical RP-HPLC retention time as measure of hydrophobicity; type: physicochemical; conditions: measure of global hydrophobicity, Phenomenex Kinetex 2.6 µm C18 (150 × 4.6 mm), 0.7 mL/min, ACN/TFA (100:0.0008) and water/TFA (100:0.001)
Experimental: Peptide purification was carried out via preparative RP-HPLC on an Agilent 1260 Infinity II system (Santa Clara, CA, USA) equipped with a 21.2 × 150 mm Agilent ZORBAX Eclipse Plus C18 column, operating at a flow rate of 25 mL/min. The mobile phase consisted of acetonitrile containing 0.0008% trifluoroacetic acid (v/v) as the organic phase and water with 0.001% TFA as the aqueous phase. […] Analytical HPLC analysis was performed on a Hewlett-Packard Series 1100 instrument using a Phenomenex (Torrance, CA, USA) Kinetex C18 column (150 mm × 4.6 mm, 2.6 µm particle size), under identical solvent conditions, to confirm purity.
HRMS of peptide 1. […] HRMS of peptide 2. […] HRMS of peptide 3. […] HRMS of peptide 4. […] HRMS of peptide 5. […] HRMS of peptide 6. […] HRMS of peptide 7. […] HRMS of peptide 8. […] HRMS of peptide 9. […] HRMS of peptide 10. […] HRMS of peptide 11. […] HRMS of peptide 12. […] HRMS of peptide 13. […] HRMS of peptide 14. […] HRMS of peptide 15. […] HRMS of peptide 16. […] HRMS of peptide 17. […] HRMS of peptide 18. […] HRMS of peptide 19.

[7] = broth microdilution in CAMHB, 5 × 10^4 CFU/well, 1% DMSO, 37 °C, 16–20 h, 256 to 0.125 µg/mL, triplicate (n = 3)

MIC A. baumannii ATCC 19606 ([1]; ATCC 19606) [µg/mL]	MIC E. coli ATCC 25922 ([2]; ATCC 25922) [µg/mL]	MIC K. pneumonia ATCC 33495 ([3]; ATCC 33495) [µg/mL]	MIC P. aeruginosa ATCC 27853 ([4]; ATCC 27853) [µg/mL]	RP-HPLC retention time tR [6] [min]	SMILES	MIC A. baumannii ATCC 19606 [1, 7] [µg/mL]	MIC E. coli ATCC 25922 [2, 7] [µg/mL]	MIC K. pneumonia ATCC 33495 [3, 7] [µg/mL]	MIC P. aeruginosa ATCC 27853 [4, 7] [µg/mL]	HC50 (50% haemolytic concentration) [5] [µg/mL]
–	–	–	–	–	CC(C)C[C@@H]1NC(=O)[C@H](CCCN)NC(=O)[C@H](C(C)(C)C)NC(=O)[C@@H]2CCCN2C(=O)[C@@H](Cc2ccccc2)NC(=O)[C@H](CC(C)C)NC(=O)[C@H](CCCN)NC(=O)[C@H](C(C)(C)C)NC(=O)[C@@H]2CCCN2C(=O)[C@@H](Cc2ccccc2)NC1=O [Peptide 13] (cyclo(L[dF]P[Tle][Orn]L[dF]P[Tle][Orn]))	32 (≈ 27.4 µM)	32 (≈ 27.4 µM)	256 (≈ 219 µM)	128 (≈ 109 µM)	6.26 ± 0.35
4 (≈ 3.42 µM)	32 (≈ 27.4 µM)	128 (≈ 109 µM)	64 (≈ 54.7 µM)	19.90	CC(C)(C)[C@@H]1NC(=O)[C@H](CCCN)NC(=O)[C@H](C(C)(C)C)NC(=O)[C@@H]2CCCN2C(=O)[C@@H](Cc2ccccc2)NC(=O)[C@H](C(C)(C)C)NC(=O)[C@H](CCCN)NC(=O)[C@H](C(C)(C)C)NC(=O)[C@@H]2CCCN2C(=O)[C@@H](Cc2ccccc2)NC1=O [Peptide 1] (cyclo([Orn][Tle][dF]P[Tle][Orn][Tle][dF]P[Tle]))	–	–	–	–	–
8 (≈ 6.71 µM)	16 (≈ 13.4 µM)	16 (≈ 13.4 µM)	–	16.47	CC(C)C[C@@H]1NC(=O)[C@H](CCCN)NC(=O)[C@H](C(C)C)NC(=O)[C@@H]2CCCN2C(=O)[C@@H](Cc2ccccc2)NC(=O)[C@H](CC(C)C)NC(=O)[C@H](CCCNC(=N)N)NC(=O)[C@H](C(C)C)NC(=O)[C@@H]2CCCN2C(=O)[C@@H](CCCNC(=N)N)NC1=O [Peptide 15] (cyclo(L[dF]PV[Orn]L[dR]PVR))	–	–	–	32 (≈ 26.8 µM)	–
32 (≈ 27.5 µM)	64 (≈ 55 µM)	64 (≈ 55 µM)	128 (≈ 110 µM)	16.03	CC[C@@H]1NC(=O)[C@@H]2CCCN2C(=O)[C@@H](CCCNC(=N)N)NC(=O)[C@H](CC(C)C)NC(=O)[C@H](CCCN)NC(=O)[C@H](CC)NC(=O)[C@@H]2CCCN2C(=O)[C@@H](Cc2ccccc2)NC(=O)[C@H](CC(C)C)NC(=O)[C@H](CCCNC(=N)N)NC1=O [Peptide 18] (cyclo([Abu][Orn]L[dR]P[Abu]RL[dF]P))	–	–	–	–	–
